# Reference: ChEMBL document CHEMBL1201862, “PubChem BioAssay data set” (2004)
#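 How tested: cells in 96-well plates exposed to compound for 48 hours at five concentrations. At the GI50, growth is halved.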 Activity calls are given as the source filed them. Cut-off read from the data, not from the text of the source: active = GI50 up to about 1.1 µM and inactive = higher.
# Tests used:
# Experiment in all cases: NCI tumour cell line growth inhibition, 48 h
# HL-60 = test system: HL-60
# HT-29 = test system: HT-29
# RPMI-8226 = test system: RPMI-8226
# UACC-62 = test system: UACC-62
# NCI/ADR-RES = test system: NCI/ADR-RES
# 786-0 = test system: 786-0
# SK-MEL-28 = test system: SK-MEL-28
# SR = test system: SR
# NCI-H226 = test system: NCI-H226
# OVCAR-5 = test system: OVCAR-5
# SF-268 = test system: SF-268
# DU-145 = test system: DU-145
# MDA-MB-231 = test system: MDA-MB-231
# T47D = test system: T47D
# HCT-15 = test system: HCT-15
# M14 = test system: M14
# SF-539 = test system: SF-539
# HCC 2998 = test system: HCC 2998
# OVCAR-8 = test system: OVCAR-8
# UO-31 = test system: UO-31
SMILES,GI50 (HL-60),GI50 (HT-29),GI50 (RPMI-8226),GI50 (UACC-62),GI50 (NCI/ADR-RES),GI50 (786-0),GI50 (SK-MEL-28),GI50 (SR),GI50 (NCI-H226),GI50 (OVCAR-5),GI50 (SF-268),GI50 (DU-145),GI50 (MDA-MB-231),GI50 (T47D),GI50 (HCT-15),GI50 (M14),GI50 (SF-539),GI50 (HCC 2998),GI50 (OVCAR-8),GI50 (UO-31)
O=[N+]([O-])c1cccnc1-n1cnc2ccccc21,48 µM (inactive),> 100 µM (inactive),> 100 µM (inactive),> 100 µM (inactive),> 100 µM (inactive),> 100 µM (inactive),> 100 µM (inactive),> 100 µM (inactive),> 100 µM (inactive),> 100 µM (inactive),> 100 µM (inactive),> 100 µM (inactive),> 100 µM (inactive),> 100 µM (inactive),> 100 µM,> 100 µM (inactive),> 100 µM (inactive),> 100 µM (inactive),> 100 µM (inactive),
Cc1ccc(S(=O)(=O)CNC(=O)C(O)(O)C(F)(F)F)cc1,> 100 µM (inactive),> 100 µM (inactive),> 100 µM (inactive),> 100 µM (inactive),> 100 µM (inactive),> 100 µM (inactive),> 100 µM (inactive),> 100 µM (inactive),,> 100 µM (inactive),> 100 µM (inactive),> 100 µM (inactive),> 100 µM (inactive),> 100 µM (inactive),> 100 µM,> 100 µM (inactive),> 100 µM (inactive),> 100 µM (inactive),> 100 µM (inactive),> 100 µM (inactive)
C1CCN2CC3CCCN4CCCC(C2C1)C34 (stereo unspecified),> 100 µM (inactive),> 100 µM (inactive),> 100 µM (inactive),> 100 µM (inactive),> 100 µM (inactive),> 100 µM (inactive),> 100 µM (inactive),> 100 µM (inactive),> 100 µM (inactive),> 100 µM (inactive),> 100 µM (inactive),> 100 µM (inactive),> 100 µM (inactive),> 100 µM (inactive),> 100 µM,> 100 µM (inactive),> 100 µM (inactive),> 100 µM (inactive),> 100 µM (inactive),
CN(Cc1c[n+]([O-])c2nc(N)nc(N)c2n1)c1ccc(C(=O)NC23CC4CC(CC(C4)C2)C3)cc1,31 µM (inactive),,93.1 µM (inactive),> 100 µM (inactive),> 100 µM (inactive),> 100 µM (inactive),23.1 µM (inactive),28.8 µM (inactive),> 100 µM (inactive),> 100 µM (inactive),26.3 µM (inactive),> 100 µM (inactive),98.9 µM (inactive),75.2 µM (inactive),> 100 µM,> 100 µM (inactive),,,> 100 µM (inactive),> 100 µM (inactive)
CCOC(=O)C1C(=O)CC(O)(OCC)C(C(=O)OCC)C1c1ccc(OC)cc1 (stereo unspecified),> 100 µM (inactive),> 100 µM (inactive),,> 100 µM (inactive),> 100 µM (inactive),> 100 µM (inactive),> 100 µM (inactive),> 100 µM (inactive),> 100 µM (inactive),> 100 µM (inactive),> 100 µM (inactive),> 100 µM (inactive),> 100 µM (inactive),> 100 µM (inactive),> 100 µM,,,> 100 µM (inactive),> 100 µM (inactive),> 100 µM (inactive)
O=C(Cc1ccc(Cl)c(Cl)c1)NCC1(N2CCCCC2)CCCCC1,41.4 µM (inactive),26.1 µM (inactive),35.3 µM (inactive),20.2 µM (inactive),93.5 µM (inactive),39.3 µM (inactive),,35.5 µM (inactive),,47.1 µM (inactive),85.3 µM (inactive),61 µM (inactive),58.5 µM (inactive),21.1 µM (inactive),38.7 µM,18.3 µM (inactive),,17 µM (inactive),97.3 µM (inactive),27.1 µM (inactive)
O=C(CSCC(=O)N/N=C\c1cccc(Br)c1)N/N=C\c1cccc(Br)c1,30.3 µM (inactive),23.1 µM (inactive),,14.7 µM (inactive),15.9 µM (inactive),19.1 µM (inactive),18.8 µM (inactive),27.2 µM (inactive),15.7 µM (inactive),18.6 µM (inactive),14.1 µM (inactive),21.8 µM (inactive),12.7 µM (inactive),18.1 µM (inactive),21.2 µM,20 µM (inactive),23.6 µM (inactive),,15.3 µM (inactive),15.5 µM (inactive)
NCCCCCCn1c(-c2ccc(Br)cc2)cs/c1=N\c1ccccc1,,5.9 µM (inactive),3.33 µM (inactive),17.4 µM (inactive),12.2 µM (inactive),10.2 µM (inactive),12.7 µM (inactive),3.51 µM (inactive),16.9 µM (inactive),12.2 µM (inactive),13.9 µM (inactive),13.5 µM (inactive),14.4 µM (inactive),5.08 µM (inactive),7.74 µM,1.44 µM (inactive),13.1 µM (inactive),3.75 µM (inactive),11.9 µM (inactive),10.4 µM (inactive)
NNS(=O)(=O)c1cc(C(=O)O)cc(C(=O)O)c1,> 100 µM (inactive),> 100 µM (inactive),> 100 µM (inactive),> 100 µM (inactive),> 100 µM (inactive),> 100 µM (inactive),> 100 µM (inactive),> 100 µM (inactive),> 100 µM (inactive),> 100 µM (inactive),> 100 µM (inactive),> 100 µM (inactive),> 100 µM (inactive),> 100 µM (inactive),> 100 µM,> 100 µM (inactive),> 100 µM (inactive),,> 100 µM (inactive),> 100 µM (inactive)
COc1ccc2oc(S(=O)(=O)N3CC(CCl)c4ccc([N+](=O)[O-])cc43)cc2c1 (stereo unspecified),0.0579 µM (active),0.146 µM (active),0.107 µM (active),0.055 µM (active),0.0596 µM (active),0.0959 µM (active),,0.0521 µM (active),0.127 µM (active),0.832 µM (active),0.299 µM (active),0.0883 µM (active),0.29 µM (active),20.2 µM (inactive),0.0703 µM,0.122 µM (active),0.0607 µM (active),0.256 µM (active),0.22 µM (active),0.783 µM (active)
CCOC(=O)N/N=C(/N)c1cccc([N+](=O)[O-])c1,> 100 µM (inactive),> 100 µM (inactive),,> 100 µM (inactive),> 100 µM (inactive),> 100 µM (inactive),> 100 µM (inactive),> 100 µM (inactive),,> 100 µM (inactive),> 100 µM (inactive),> 100 µM (inactive),> 100 µM (inactive),> 100 µM (inactive),> 100 µM,> 100 µM (inactive),> 100 µM (inactive),> 100 µM (inactive),> 100 µM (inactive),> 100 µM (inactive)
